{"source": "patent US10626112B2", "about": "“Heterocyclic sulfonamide derivative and medicine comprising same” (EA PHARMA CO., LTD., priority 2014, dated 2020)", "target": "human TRPA1 (Homo sapiens (Human), UniProt O75762)", "sequence (O75762 whole entry)": "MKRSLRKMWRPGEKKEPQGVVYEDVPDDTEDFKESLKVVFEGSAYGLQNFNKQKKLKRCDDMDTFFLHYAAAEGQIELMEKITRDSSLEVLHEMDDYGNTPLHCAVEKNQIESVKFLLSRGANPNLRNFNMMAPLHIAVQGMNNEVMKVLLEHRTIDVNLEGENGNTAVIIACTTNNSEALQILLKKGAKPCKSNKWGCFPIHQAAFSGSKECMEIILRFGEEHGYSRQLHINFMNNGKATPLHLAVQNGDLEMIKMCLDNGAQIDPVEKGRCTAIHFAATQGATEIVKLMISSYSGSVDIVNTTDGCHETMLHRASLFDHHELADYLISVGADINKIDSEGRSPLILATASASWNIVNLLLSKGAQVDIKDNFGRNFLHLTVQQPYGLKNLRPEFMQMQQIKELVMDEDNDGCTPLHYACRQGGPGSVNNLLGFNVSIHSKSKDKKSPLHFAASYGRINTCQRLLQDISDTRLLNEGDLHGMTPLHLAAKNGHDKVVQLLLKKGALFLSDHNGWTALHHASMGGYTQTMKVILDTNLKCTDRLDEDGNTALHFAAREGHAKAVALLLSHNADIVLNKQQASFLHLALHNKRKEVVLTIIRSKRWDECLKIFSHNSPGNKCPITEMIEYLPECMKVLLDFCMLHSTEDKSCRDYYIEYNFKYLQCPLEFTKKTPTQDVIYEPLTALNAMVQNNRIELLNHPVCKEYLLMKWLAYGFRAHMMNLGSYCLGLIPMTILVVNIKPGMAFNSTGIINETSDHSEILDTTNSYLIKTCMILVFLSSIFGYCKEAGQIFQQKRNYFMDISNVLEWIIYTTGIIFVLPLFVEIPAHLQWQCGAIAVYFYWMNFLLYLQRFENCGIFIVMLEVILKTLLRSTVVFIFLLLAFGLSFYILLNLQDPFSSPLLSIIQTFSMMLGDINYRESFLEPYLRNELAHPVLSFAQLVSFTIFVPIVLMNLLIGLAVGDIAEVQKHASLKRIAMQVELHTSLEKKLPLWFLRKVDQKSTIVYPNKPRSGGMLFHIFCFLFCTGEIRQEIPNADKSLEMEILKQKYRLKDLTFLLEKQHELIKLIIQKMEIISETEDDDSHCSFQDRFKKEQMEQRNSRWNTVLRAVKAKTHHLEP", "assay": "Measurement of TRPA1 antagonist activity (1): intracellular calcium increase", "assay_type": "cell-based", "conditions": "293T cells transfected with human TRPA1 expression plasmid; allylisothiocyanate 20 μM stimulation; intracellular calcium fluorescence; read-out: hTRPA1 IC50", "outline": "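HEK293T cells transiently transfected with full-length human TRPA1, loaded with Calcium4 dye in HBSS/20 mM HEPES pH 7.2. Test compound preincubated 10 min, then allylisothiocyanate added at 20 μM final and fluorescence change followed for 5 min. IC50 from sigmoid fit of percent inhibition relative to agonist and buffer controls.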", "data": [{"smiles": "C[C@H](NS(=O)(=O)c1cc2ccccc2o1)C(=O)NCc1ccnc(-c2ccc(C(F)(F)F)cc2O)c1", "note": "[Example 180, (2S)-2-(benzofuran-2-ylsulfonylamino)-N-[[2-[2-hydroxy-4-(trifluoromethyl)phenyl]-4-pyridyl]methyl]propanamide]", "values": [{"measurement": "IC50", "value": 69, "unit": "nM"}]}, {"smiles": "C[C@H](NS(=O)(=O)c1cc2cc(F)ccc2o1)C(=O)NCc1ccnc(-c2ccc(C(F)(F)F)cc2O)c1", "note": "[Example 181, (2S)-2-[(5-fluorobenzofuran-2-yl)sulfonylamino]-N-[[2-[2-hydroxy-4-(trifluoromethyl)phenyl]-4-pyridyl]methyl]propanamide]", "values": [{"measurement": "IC50", "value": 21, "unit": "nM"}]}, {"smiles": "C[C@H](NS(=O)(=O)c1cc2ccccc2o1)C(=O)NCc1cccc(OCc2ccc(C#N)cc2)c1", "note": "[Example 182, (2S)-2-(benzofuran-2-ylsulfonylamino)-N-[[3-[(4-cyanophenyl)methoxy]phenyl]methyl]propanamide]", "values": [{"measurement": "IC50", "value": 94, "unit": "nM"}]}, {"smiles": "C[C@H](NS(=O)(=O)c1cc2ccccc2o1)C(=O)NCc1cccc(OCC2CCOCC2)c1", "note": "[Example 183, (2S)-2-(benzofuran-2-ylsulfonylamino)-N-[[3-(tetrahydropyran-4-ylmethoxy)phenyl]methyl]propanamide]", "values": [{"measurement": "IC50", "value": 570, "unit": "nM"}]}, {"smiles": "C[C@H](NS(=O)(=O)c1cc2cc(F)ccc2o1)C(=O)NCc1cccc(OCc2ccc(C#N)cc2)c1", "note": "[Example 184, (2S)-N-[[3-[(4-cyanophenyl)methoxy]phenyl]methyl]-2-[(5-fluorobenzofuran-2-yl)sulfonylamino]propanamide]", "values": [{"measurement": "IC50", "value": 41, "unit": "nM"}]}, {"smiles": "C[C@H](NS(=O)(=O)c1cc2cc(F)ccc2o1)C(=O)NCc1cccc(OCC2CCOCC2)c1", "note": "[Example 185, (2S)-2-[(5-fluorobenzofuran-2-yl)sulfonylamino]-N-[[3-(tetrahydropyran-4-ylmethoxy)phenyl]methyl]propanamide]", "values": [{"measurement": "IC50", "value": 250, "unit": "nM"}]}, {"smiles": "O=C(NCc1ccnc(NCc2ccc(C(F)(F)F)cc2)c1)[C@@H]1CCCN1S(=O)(=O)c1cc2ccccc2o1", "note": "[Example 186, (2S)-1-(benzofuran-2-ylsulfonyl)-N-[[2-[[4-(trifluoromethyl)phenyl]methylamino]-4-pyridyl]methyl]pyrrolidine-2-carboxamide]", "values": [{"measurement": "IC50", "value": 86, "unit": "nM"}]}, {"smiles": "O=C(NCc1cccc(OCc2ccc(C(F)(F)F)cc2)c1)[C@@H]1CC=CCN1S(=O)(=O)c1cc2ccccc2o1", "note": "[Example 187, (2S)-1-(benzofuran-2-ylsulfonyl)-N-[[3-[[4-(trifluoromethyl)phenyl]methoxy]phenyl]methyl]-3,6-dihydro-2H-pyridine-2-carboxamide]", "values": [{"measurement": "IC50", "value": 71, "unit": "nM"}]}, {"smiles": "O=C(NCc1cccc([S+]([O-])Cc2ccccc2)c1)[C@@H]1CCCN1S(=O)(=O)c1cc2ccccc2o1", "note": "(stereo partly drawn) [Example 188, (2S)-1-(benzofuran-2-ylsulfonyl)-N-[(3-benzylsulfinylphenyl)methyl]pyrrolidine-2-carboxamide]", "values": [{"measurement": "IC50", "value": 890, "unit": "nM"}]}, {"smiles": "CC(C)(C)OC[C@H](NS(=O)(=O)c1cc2cc(F)ccc2o1)C(=O)NCc1cccc(-c2ccc(C(F)(F)F)nc2)c1", "note": "[Example 189, (2S)-3-tert-butoxy-2-[(5-fluorobenzofuran-2-yl)sulfonylamino]-N-[[3-[6-trifluoromethyl-3-pyridyl]phenyl]methyl]propanamide]", "values": [{"measurement": "IC50", "value": 840, "unit": "nM"}]}, {"smiles": "C[C@H](NS(=O)(=O)c1cc2cc(F)ccc2o1)C(=O)NCc1cc(-c2ccc(OC(F)(F)F)cc2)ncn1", "note": "[Example 190, (2S)-2-[(5-fluorobenzofuran-2-yl)sulfonylamino]-N-[[6-[4-(trifluoromethoxy)phenyl]pyrimidin-4-yl]methyl]propanamide]", "values": [{"measurement": "IC50", "value": 5.2, "unit": "nM"}]}, {"smiles": "O=C(NCc1cc(-c2ncc(C(F)(F)F)cn2)ccn1)[C@@H]1CCCN1S(=O)(=O)c1cc2ccccc2o1", "note": "[Example 192, (2S)-1-(benzofuran-2-ylsulfonyl)-N-[[4-[5-(trifluoromethyl)pyrimidin-2-yl]-2-pyridyl]methyl]pyrrolidine-2-carboxamide]", "values": [{"measurement": "IC50", "value": 22, "unit": "nM"}]}, {"smiles": "O=C(NCc1ccc(O)c(-c2ccc(C(F)(F)F)cn2)c1)[C@@H]1CCCN1S(=O)(=O)c1cc2ccccc2o1", "note": "[Example 193, (2S)-1-(benzofuran-2-ylsulfonyl)-N-[[4-hydroxy-3-[5-(trifluoromethyl)-2-pyridyl]phenyl]methyl]pyrrolidine-2-carboxamide]", "values": [{"measurement": "IC50", "value": 2.2, "unit": "nM"}]}, {"smiles": "O=C(NCc1cccc(-c2ncc(C(F)(F)F)cn2)c1)[C@@H]1CCCN1S(=O)(=O)c1cc2ccccc2o1", "note": "[Example 194, (2S)-1-(benzofuran-2-ylsulfonyl)-N-[[3-[5-(trifluoromethyl)pyrimidin-2-yl]phenyl]-methyl]pyrrolidine-2-carboxamide]", "values": [{"measurement": "IC50", "value": 10, "unit": "nM"}]}, {"smiles": "O=C(NCc1cccc(-c2cnc(C(F)(F)F)nc2)c1)[C@@H]1CCCN1S(=O)(=O)c1cc2ccccc2o1", "note": "[Example 195, (2S)-1-(benzofuran-2-ylsulfonyl)-N-[[3-[2-(trifluoromethyl)pyrimidin-5-yl]phenyl]-methyl]pyrrolidine-2-carboxamide]", "values": [{"measurement": "IC50", "value": 2.5, "unit": "nM"}]}, {"smiles": "O=C(NCc1cccc(-c2cnc(C(F)(F)F)cn2)c1)[C@@H]1CCCN1S(=O)(=O)c1cc2ccccc2o1", "note": "[Example 196, (2S)-1-(benzofuran-2-ylsulfonyl)-N-[[3-[5-(trifluoromethyl)pyrazin-2-yl]phenyl]methyl]-pyrrolidine-2-carboxamide]", "values": [{"measurement": "IC50", "value": 2.9, "unit": "nM"}]}, {"smiles": "O=C(NCc1cccc(-c2ccc(C(F)(F)F)nn2)c1)[C@@H]1CCCN1S(=O)(=O)c1cc2ccccc2o1", "note": "[Example 197, (2S)-1-(benzofuran-2-ylsulfonyl)-N-[[3-[6-(trifluoromethyl)pyridazin-3-yl]phenyl]methyl]-pyrrolidine-2-carboxamide]", "values": [{"measurement": "IC50", "value": 3, "unit": "nM"}]}, {"smiles": "O=C(NCc1ccnc(-c2ccc(Cl)cc2)c1)[C@@H]1CCCN1S(=O)(=O)c1cc2ccccc2o1", "note": "[Example 198, (2S)-1-(benzofuran-2-ylsulfonyl)-N-[[2-(4-chlorophenyl)-4-pyridyl]methyl]pyrrolidine-2-carboxamide]", "values": [{"measurement": "IC50", "value": 13, "unit": "nM"}]}, {"smiles": "O=C(NCc1ccnc(-c2cnc(C(F)(F)F)nc2)c1)[C@@H]1CCCN1S(=O)(=O)c1cc2ccccc2o1", "note": "[Example 199, (2S)-1-(benzofuran-2-ylsulfonyl)-N-[[2-[2-(trifluoromethyl)pyrimidin-5-yl]-4-pyridyl]methyl]pyrrolidine-2-carboxamide]", "values": [{"measurement": "IC50", "value": 5, "unit": "nM"}]}, {"smiles": "O=C(NCc1cc(-c2cnc(C(F)(F)F)nc2)ccn1)[C@@H]1CCCN1S(=O)(=O)c1cc2ccccc2o1", "note": "[Example 200, (2S)-1-(benzofuran-2-ylsulfonyl)-N-[[4-[2-(trifluoromethyl)pyrimidin-5-yl]-2-pyridyl]methyl]pyrrolidine-2-carboxamide]", "values": [{"measurement": "IC50", "value": 16, "unit": "nM"}]}, {"smiles": "O=C(NCc1cc(-c2cnc(C(F)(F)F)cn2)ccn1)[C@@H]1CCCN1S(=O)(=O)c1cc2ccccc2o1", "note": "[Example 201, (2S)-1-(benzofuran-2-ylsulfonyl)-N-[[4-[5-(trifluoromethyl)pyrazin-2-yl]-2-pyridyl]methyl]pyrrolidine-2-carboxamide]", "values": [{"measurement": "IC50", "value": 8.6, "unit": "nM"}]}, {"smiles": "O=C(NCc1cc(-c2ccc(C(F)(F)F)nn2)ccn1)[C@@H]1CCCN1S(=O)(=O)c1cc2ccccc2o1", "note": "[Example 202, (2S)-1-(benzofuran-2-ylsulfonyl)-N-[[4-[6-(trifluoromethyl)pyridazin-3-yl]-2-pyridyl]methyl]pyrrolidine-2-carboxamide]", "values": [{"measurement": "IC50", "value": 4.3, "unit": "nM"}]}, {"smiles": "O=C(NCc1cc(-c2ccc(OC(F)(F)F)cc2)ncn1)[C@@H]1CCCN1S(=O)(=O)c1cc2ccccc2o1", "note": "[Example 203, (2S)-1-(benzofuran-2-ylsulfonyl)-N-[[6-[4-(trifluoromethoxy)phenyl]-pyrimidin-4-yl]methyl]pyrrolidine-2-carboxamide]", "values": [{"measurement": "IC50", "value": 3.2, "unit": "nM"}]}]}
